Consider nine compounds from patent US9587005B2 (priority 2010, dated 2017).

Read-outs that look alike come from different tables or passages of the source. *1 amine or outer side, *2 acyl side, *3 side chain or, on linkers, in order; H or OH if unused. Where a SMILES comes first, the peptide text is derived from it. Where no end group is shown, it is not given here. Side-chain parts run from the residue outwards. [ ]: non-standard residue; d: D form. The star is where a group is joined. Phe(4-NH2) = Nc1ccc(C[C@H](N)C(=O)O)cc1; γGlu = O=C(O)[C@H](CCC(=O)[*:2])N[*:1]; X6 = CCCCCCCCCCCCCCCCC(CC(=O)*)C(=O)O; Palmitoyl = CCCCCCCCCCCCCCCC(=O)*; PEG4 = NCCOCCOCCOCCOCCC(=O)O; Aib = CC(C)(N)C(=O)O

What all share (type): cell-based
The target of assay [1] is T1, glucagon receptor (Homo sapiens, UniProt P47871).
T1 construct: expressed in transfected cells; host or cells: HEK293
T1 sequence (P47871 26-477): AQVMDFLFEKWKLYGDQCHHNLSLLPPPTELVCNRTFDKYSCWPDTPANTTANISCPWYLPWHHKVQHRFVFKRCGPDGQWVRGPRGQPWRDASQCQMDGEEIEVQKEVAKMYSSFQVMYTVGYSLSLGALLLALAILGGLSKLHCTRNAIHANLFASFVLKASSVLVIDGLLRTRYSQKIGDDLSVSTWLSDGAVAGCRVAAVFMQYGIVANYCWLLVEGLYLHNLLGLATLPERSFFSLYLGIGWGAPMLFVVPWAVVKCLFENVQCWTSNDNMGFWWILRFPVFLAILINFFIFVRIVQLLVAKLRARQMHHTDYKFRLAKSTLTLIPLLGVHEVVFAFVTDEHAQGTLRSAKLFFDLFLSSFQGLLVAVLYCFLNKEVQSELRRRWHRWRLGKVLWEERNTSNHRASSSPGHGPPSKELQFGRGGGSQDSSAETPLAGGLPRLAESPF
Description: cAMP induction, firefly luciferase reporter assay in HEK293 cells co-transfected with glucagon receptor. The note with it: for GR relative activity: Table 3, relative to the activity of the native hormone. From the text: (§1) This example describes an exemplary method of testing the biological activity of the peptides of the present disclosures, which method involves assaying cAMP synthesis.
For orientation: In a reporter assay the amount or activity of a reporter protein is the signal.

In assay [2] the target is T2, GLP-1 receptor (Homo sapiens, UniProt P43220).
T2 construct: expressed in transfected cells; host or cells: HEK293
T2 sequence (P43220 24-463): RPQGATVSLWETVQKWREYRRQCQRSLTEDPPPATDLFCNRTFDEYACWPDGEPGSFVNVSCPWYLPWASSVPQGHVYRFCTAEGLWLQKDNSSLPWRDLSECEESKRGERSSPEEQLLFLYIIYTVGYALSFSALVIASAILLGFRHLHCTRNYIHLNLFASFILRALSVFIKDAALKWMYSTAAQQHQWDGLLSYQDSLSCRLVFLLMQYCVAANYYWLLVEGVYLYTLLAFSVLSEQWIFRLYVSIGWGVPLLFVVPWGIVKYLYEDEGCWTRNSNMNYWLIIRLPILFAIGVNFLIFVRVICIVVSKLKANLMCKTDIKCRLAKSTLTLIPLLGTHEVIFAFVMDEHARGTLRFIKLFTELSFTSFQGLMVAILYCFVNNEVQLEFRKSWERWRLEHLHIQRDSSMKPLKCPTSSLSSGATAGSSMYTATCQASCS
Description: cAMP induction, firefly luciferase reporter assay in HEK293 cells co-transfected with GLP-1 receptor. The note with it: for GLP-1R relative activity: Table 3, relative to the activity of the native hormone.
Source text: as §1

The target of assay [3] is T3, GIP receptor (Homo sapiens, UniProt P48546).
T3 sequence (P48546 22-466): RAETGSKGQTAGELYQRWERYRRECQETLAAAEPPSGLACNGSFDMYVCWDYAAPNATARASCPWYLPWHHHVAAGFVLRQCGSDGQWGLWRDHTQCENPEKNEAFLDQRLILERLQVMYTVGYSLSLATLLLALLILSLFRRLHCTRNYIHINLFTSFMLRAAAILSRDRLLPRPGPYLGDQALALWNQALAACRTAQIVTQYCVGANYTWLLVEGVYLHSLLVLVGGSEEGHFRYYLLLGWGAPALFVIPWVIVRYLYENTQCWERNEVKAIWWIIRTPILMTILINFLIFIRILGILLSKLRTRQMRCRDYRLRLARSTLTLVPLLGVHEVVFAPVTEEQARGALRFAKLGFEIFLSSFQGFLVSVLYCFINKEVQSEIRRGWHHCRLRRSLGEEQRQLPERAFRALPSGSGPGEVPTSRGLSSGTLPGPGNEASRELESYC
In words: cAMP induction, firefly luciferase reporter assay in HEK293 cells co-transfected with GIP receptor. The note with it: for GIPR relative activity: Table 3, relative to the activity of the native hormone.

The mark [4] stands for this setting: Table 3, Example 8, read-out: GLP-1R EC50.
Setting [5] is: Table 3, Example 8, read-out: GIPR EC50.

The EC50 is the concentration giving half of the maximal effect. In assay [1], “Example 8 peptide: Tyr1, AIB2, Glu16/Lys20 lactam, Leu-Ala-Gly 27-29, GPSSGAPPPS 30-39, or a peptide lacking a lactam [mt-220]” showed a GR relative activity of 1.18%. Besides, the EC50 stood at 0.18 nM in assay [2] (setting [4]) and 10.3 nM in assay [3] (setting [5]). In assay [2], this compound showed a GLP-1R relative activity of 13.89%. The same compound showed a GIPR relative activity in assay [3] of 0.19%.
Consider `CCCCCCCCCCCCCCCC(=O)N[C@@H](CCC(=O)NCCCCCCCCCCCC(=O)NCCCC[C@H](NC(=O)[C@H](CC(=O)O)NC(=O)[C@H](CO)NC(=O)[C@@H](NC(=O)[C@H](Cc1ccccc1)NC(=O)[C@@H](NC(=O)CNC(=O)[C@H](CCC(N)=O)NC(=O)C(C)(C)NC(=O)[C@@H](N)Cc1c[nH]cn1)[C@@H](C)O)[C@@H](C)O)C(=O)N[C@@H](CO)C(=O)N[C@@H](CCCCN)C(=O)N[C@@H](Cc1ccc(O)cc1)C(=O)N[C@@H](CC(C)C)C(=O)N[C@@H](CC(=O)O)C(=O)N[C@@H](CCC(=O)O)C(=O)N[C@@H](CCCNC(=N)N)C(=O)N[C@@H](C)C(=O)N[C@@H](C)C(=O)N[C@@H](CCC(N)=O)C(=O)N[C@@H](CC(=O)O)C(=O)N[C@@H](Cc1ccccc1)C(=O)N[C@H](C(=O)N[C@@H](CCC(N)=O)C(=O)N[C@@H](Cc1c[nH]c2ccccc12)C(=O)N[C@@H](CC(C)C)C(=O)N[C@@H](CC(C)C)C(=O)N[C@@H](CC(=O)O)C(=O)NCC(=O)NCC(=O)N1CCC[C@H]1C(=O)N[C@@H](CO)C(=O)N[C@@H](CO)C(=O)NCC(=O)N[C@@H](C)C(=O)N1CCC[C@H]1C(=O)N1CCC[C@H]1C(=O)N1CCC[C@H]1C(=O)N[C@@H](CO)C(N)=O)C(C)C)C(=O)O` [SEQ ID NO: 162], for which the EC50 in assay [1] came out at 0.008 nM; in assay [2] (EC50 (cAMP, nmole) GLPR, Table 12, Example 19) it was 0.003 nM; in assay [3] (EC50 (cAMP, nmole) GIPR, Table 12, Example 19) it was 0.033 nM.
`CCCCCCCCCCCCCCCC(=O)N[C@@H](CCC(=O)NCCCC[C@H](NC(=O)[C@H](CC(=O)O)NC(=O)[C@H](CO)NC(=O)[C@@H](NC(=O)[C@H](Cc1ccccc1)NC(=O)[C@@H](NC(=O)CNC(=O)[C@H](CCC(N)=O)NC(=O)C(C)(C)NC(=O)[C@@H](N)Cc1c[nH]cn1)[C@@H](C)O)[C@@H](C)O)C(=O)N[C@@H](CO)C(=O)N[C@@H](CCCCN)C(=O)N[C@@H](Cc1ccc(O)cc1)C(=O)N[C@@H](CC(C)C)C(=O)N[C@@H](CC(=O)O)C(=O)N[C@@H](CCC(=O)O)C(=O)N[C@@H](CCCNC(=N)N)C(=O)N[C@@H](CCCNC(=N)N)C(=O)N[C@@H](C)C(=O)NC(C)(C)C(=O)N[C@@H](CCC(=O)O)C(=O)N[C@@H](Cc1ccccc1)C(=O)N[C@H](C(=O)N[C@@H](CCC(N)=O)C(=O)N[C@@H](Cc1c[nH]c2ccccc12)C(=O)N[C@@H](CC(C)C)C(=O)N[C@@H](CC(C)C)C(=O)N[C@@H](CC(=O)O)C(=O)NCC(=O)NCC(=O)N1CCC[C@H]1C(=O)N[C@@H](CO)C(=O)N[C@@H](CO)C(=O)NCC(=O)N[C@@H](C)C(=O)N1CCC[C@H]1C(=O)N1CCC[C@H]1C(=O)N1CCC[C@H]1C(=O)N[C@@H](CO)C(N)=O)C(C)C)C(=O)O` [compound 37] (H-H[Aib]QGTFTSDK([γGlu-Palmitoyl])SKYLDERRA[Aib]EFVQWLLDGGPSSGAPPPS-NH2; N-terminus assumed): the EC50 turned out to be 0.004 nM in assay [1] (EC50 (nM) at Glucagon Receptor, Table 4, Example 9, composite of multiple different activity assays); 0.006 nM in assay [2] (EC50 (nM) at GLP-1 Receptor, Table 4, Example 9, composite of multiple different activity assays); 0.002 nM in assay [3] (EC50 (nM) at GIP Receptor, Table 4, Example 9, composite of multiple different activity assays).
With `CCCCCCCCCCCCCCCC(=O)N[C@@H](CCC(=O)Nc1ccc(C[C@H](NC(=O)[C@@H](NC(=O)CNC(=O)[C@H](CCC(N)=O)NC(=O)C(C)(C)NC(=O)[C@@H](N)Cc2c[nH]cn2)[C@@H](C)O)C(=O)N[C@H](C(=O)N[C@@H](CO)C(=O)N[C@@H](CC(=O)O)C(=O)N[C@@H](Cc2ccc(O)cc2)C(=O)N[C@@H](CO)C(=O)N[C@@H](CCCCN)C(=O)N[C@@H](Cc2ccc(O)cc2)C(=O)N[C@@H](CC(C)C)C(=O)N[C@@H](CC(=O)O)C(=O)N[C@@H](CCC(=O)O)C(=O)N[C@@H](CCCNC(=N)N)C(=O)N[C@@H](C)C(=O)N[C@@H](C)C(=O)N[C@@H](CCC(N)=O)C(=O)N[C@@H](CC(=O)O)C(=O)N[C@@H](Cc2ccccc2)C(=O)N[C@H](C(=O)N[C@@H](CCC(N)=O)C(=O)N[C@@H](Cc2c[nH]c3ccccc23)C(=O)N[C@@H](CC(C)C)C(=O)N[C@@H](CC(C)C)C(=O)N[C@@H](CC(=O)O)C(=O)NCC(=O)NCC(=O)N2CCC[C@H]2C(=O)N[C@@H](CO)C(=O)N[C@@H](CO)C(=O)NCC(=O)N[C@@H](C)C(=O)N2CCC[C@H]2C(=O)N2CCC[C@H]2C(=O)N2CCC[C@H]2C(=O)N[C@@H](CO)C(N)=O)C(C)C)[C@@H](C)O)cc1)C(=O)O` [SEQ ID NO: 147] (H-H[Aib]QGT[Phe(4-NH2)]([γGlu-Palmitoyl])TSDYSKYLDERAAQDFVQWLLDGGPSSGAPPPS-NH2; N-terminus assumed), the EC50 stood at 0.246 nM in assay [1] (Glucagon Receptor EC50, Table 10, Example 16); 0.004 nM in assay [2] (GLP-1 Receptor EC50, Table 10, Example 16); 3.13 nM in assay [3] (Table 10, Example 16, read-out: GIP-1 Receptor EC50).
As to “H[Aib]QGTFTSDYSKYLDERAAQDFVQWLLDGGPSSGAPPPS[Phe(4-NH2)](X6)G-NH2 [SEQ ID NO: 146]”, the results for the EC50 in assay [1], in assay [2] and in assay [3] were 0.007 nM, 0.007 nM and 0.052 nM, respectively.
With `CCCCCCCCCCCCCCCC(=O)N[C@@H](CCC(=O)NCCCC[C@H](NC(=O)[C@H](CC(=O)O)NC(=O)[C@H](CO)NC(=O)[C@@H](NC(=O)[C@H](Cc1ccccc1)NC(=O)[C@@H](NC(=O)CNC(=O)[C@H](CCC(N)=O)NC(=O)C(C)(C)NC(=O)[C@@H](N)Cc1c[nH]cn1)[C@@H](C)O)[C@@H](C)O)C(=O)N[C@@H](CO)C(=O)N[C@@H](CCCCN)C(=O)N[C@@H](Cc1ccc(O)cc1)C(=O)N[C@@H](CC(C)C)C(=O)N[C@@H](CC(=O)O)C(=O)N[C@@H](CCC(=O)O)C(=O)N[C@@H](CCCNC(=N)N)C(=O)N[C@@H](C)C(=O)N[C@@H](C)C(=O)N[C@@H](CCC(N)=O)C(=O)N[C@@H](CC(=O)O)C(=O)N[C@@H](Cc1ccccc1)C(=O)N[C@H](C(=O)N[C@@H](CCC(N)=O)C(=O)N[C@@H](Cc1c[nH]c2ccccc12)C(=O)N[C@@H](CC(C)C)C(=O)N[C@@H](CC(C)C)C(=O)N[C@@H](CC(=O)O)C(=O)NCC(=O)NCC(=O)N1CCC[C@H]1C(=O)N[C@@H](CO)C(=O)N[C@@H](CO)C(=O)NCC(=O)N[C@@H](C)C(=O)N1CCC[C@H]1C(=O)N1CCC[C@H]1C(=O)N1CCC[C@H]1C(=O)N[C@@H](CO)C(=O)NCC(N)=O)C(C)C)C(=O)O` [SEQ ID NO: 205] (H-H[Aib]QGTFTSDK([γGlu-Palmitoyl])SKYLDERAAQDFVQWLLDGGPSSGAPPPSG-NH2), the EC50 in assay [1] (EC50 (nM) at glucagon receptor, Table 16, Example 24) is 0.005 nM; in assay [2] (EC50 (nM) at GLP-1 receptor, Table 16, Example 24), 0.002 nM; in assay [3] (EC50 (nM) at GIP receptor, Table 16, Example 24), 0.004 nM.
Consider `CCCCCCCCCCCCCCCC(=O)N[C@@H](CCC(=O)N[C@@H](CCC(=O)NCCCC[C@H](NC(=O)[C@H](CC(=O)O)NC(=O)[C@H](CO)NC(=O)[C@@H](NC(=O)[C@H](Cc1ccccc1)NC(=O)[C@@H](NC(=O)CNC(=O)[C@H](CCC(N)=O)NC(=O)C(C)(C)NC(=O)[C@@H](N)Cc1ccc(O)cc1)[C@@H](C)O)[C@@H](C)O)C(=O)N[C@@H](CO)C(=O)N[C@H](C(=O)N[C@@H](Cc1ccc(O)cc1)C(=O)N[C@@H](CC(C)C)C(=O)N[C@@H](CC(=O)O)C(=O)N[C@@H](CCCCN)C(=O)N[C@@H](CCC(N)=O)C(=O)N[C@@H](C)C(=O)N[C@@H](C)C(=O)NC(C)(C)C(=O)N[C@@H](CCC(=O)O)C(=O)N[C@@H](Cc1ccccc1)C(=O)N[C@H](C(=O)N[C@@H](CC(N)=O)C(=O)N[C@@H](Cc1c[nH]c2ccccc12)C(=O)N[C@@H](CC(C)C)C(=O)N[C@@H](CC(C)C)C(=O)N[C@@H](C)C(=O)NCC(=O)NCC(=O)N1CCC[C@H]1C(=O)N[C@@H](CO)C(=O)N[C@@H](CO)C(=O)NCC(=O)N[C@@H](C)C(=O)N1CCC[C@H]1C(=O)N1CCC[C@H]1C(=O)N1CCC[C@H]1C(=O)N[C@@H](CO)C(N)=O)C(C)C)[C@@H](C)CC)C(=O)O)C(=O)O` [compound 81] (H-Y[Aib]QGTFTSDK([γGlu-γGlu-Palmitoyl])SIYLDKQAA[Aib]EFVNWLLAGGPSSGAPPPS-NH2; N-terminus assumed), for which the EC50 came to 0.073 nM in assay [1] (EC50 (nM) at Glucagon Receptor, Table 6, Example 12); 0.008 nM in assay [2] (EC50 (nM) at GLP-1 Receptor, Table 6, Example 12); 0.005 nM in assay [3] (EC50 (nM) at GIP Receptor, Table 6, Example 12).
On to “Example 8 peptide: Tyr1, AIB2, Glu16/Lys20 lactam, Leu-Ala-Gly 27-29, GPSSGAPPPS 30-39, or a peptide lacking a lactam [mt-228]”, for which, in assay [1], the GR relative activity came out at 1.01%. Also, the EC50 in assay [2] (setting [4]) turned out to be 0.146 nM; in assay [3] (setting [5]), 2.27 nM. The GLP-1R relative activity in assay [2] was 19.86%. In assay [3], this compound yielded a GIPR relative activity of 0.75%.
As for “H-H[Aib]QGTFTSDYSKYLDERAAQDFVQWLLDGGPSSGAPPPSK([PEG4-γGlu-Palmitoyl])G-NH2 [SEQ ID NO: 158]”, the concentration for a half-maximal effect (EC50) in assay [1] (Glucagon Receptor EC50, Table 11, Example 18) was 0.004 nM; in assay [2] (GLP-1 Receptor EC50, Table 11, Example 18), 0.003 nM; in assay [3] (GIP Receptor EC50, Table 11, Example 18), 0.005 nM.
